Assay: solubility in aqueous medium at pH=6.7
Assay type: physicochemical

| SMILES | solubility in aqueous medium in comparison with Form I of U.S. Pat. No. 8,791,122 (comparison with Form I) | solubility in aqueous medium |
| --- | --- | --- |
| CC(C)N(CCCCOCC(=O)NS(C)(=O)=O)c1cnc(-c2ccccc2)c(-c2ccccc2)n1 [Form IV of Selexipag, 2-{4-[(5,6-diphenylpyrazin-2-yl)(isopropyl)amino]butoxy}-N-(methylsulfonyl)acetamide] | enhanced solubility |  |
| CC(C)N(CCCCOCC(=O)NS(C)(=O)=O)c1cnc(-c2ccccc2)c(-c2ccccc2)n1 [Selexipag Form I, 2-{4-[(5,6-diphenylpyrazin-2-yl)(isopropyl)amino]butoxy}-N-(methylsulfonyl)acetamide] |  | practically insoluble |

Reference: US10188648B2, “Solid state forms of selexipag” (TEVA PHARMACEUTICALS INTERNATIONAL GMBH, priority 2015, dated 2019)
